According to article PMC9354565 (The journal of physical chemistry. B, 2022):
“And” between values parts separate entries of the source, which are not always exact repeats. Equal values may be shown once. Read-outs that look alike come from different tables or passages of the source.

Assays:
[1] = pH measurement of probes in the HTRF assay buffer; assay type: physicochemical; details: for pH value of probe in the buffer: 30 mM probe; for pH value of the buffer with BZA: Figure 6C
[2] = solubility observed in the HTRF screening; assay type: physicochemical; details: at 10 mM in the HTRF assay
ST2 (Homo sapiens) = ST2 (Homo sapiens) (UniProt Q01638); assay: BLI; details: cited from earlier work
[3] = reported data, no reference given; cited from earlier work
[4] = target: T1, recombinant human ST2-Fc-Histag (human, UniProt Q01638 19-328); assay: AlphaScreen or HTRF
T1 sequence (looked up): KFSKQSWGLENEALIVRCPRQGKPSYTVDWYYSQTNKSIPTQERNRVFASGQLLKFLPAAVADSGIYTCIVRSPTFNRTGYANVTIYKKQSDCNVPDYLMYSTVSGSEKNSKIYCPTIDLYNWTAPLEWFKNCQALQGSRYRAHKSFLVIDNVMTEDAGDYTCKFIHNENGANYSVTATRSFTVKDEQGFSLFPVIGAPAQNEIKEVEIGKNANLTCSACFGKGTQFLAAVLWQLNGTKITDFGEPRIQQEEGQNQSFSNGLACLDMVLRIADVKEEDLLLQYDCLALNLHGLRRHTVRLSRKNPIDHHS

[5] = target: T1, recombinant human ST2-Fc-Histag; assay: AlphaScreen or HTRF; remark: listed apart in the source

Molecule: NC(=O)c1cccnc1 [NAM, nicotinamide]
- pH value of probe in the buffer [1]: 7.2

Molecule: O=C(O)c1ccc2ccccc2c1O [Compound 1]
- solubility [2]: poor solubility

Molecule: O=C(O)c1ccccc1O [SA, salicylic acid]
- pH value of probe in the buffer [1]: 4.1

Molecule: N=C(N)c1ccccc1 [BZA, benzamidine]
- pH value of the buffer with BZA ([1]; 0.12 mM BZA): 7.5
- pH value of the buffer with BZA ([1]; 3.3 mM BZA): 10.1
- pH value of the buffer with BZA ([1]; 30 mM BZA): 10.8
- pH value of probe in the buffer [1]: 10.5

Molecule: O=C(O)c1cccnc1 [NA, nicotinic acid]
- pH value of probe in the buffer [1]: 5.1

Molecule: IL33 (from UniProt O95760)
- Kd (ST2 (Homo sapiens)): 2.23 nM

Molecule: NCc1cccnc1 [AMP, 3-(aminomethyl)pyridine]
- pH value of probe in the buffer [1]: 9.4
- pKa [3]: 8.34

B1: recombinant human IL33, un-biotinylated (ligand)
chain: SITGISPITEYLASLSTYNDQSITFALEDESYEIYVEDLKKDEKKDKVLLSYYESQHPSNESGDGVDGKMLMVTLSPTKDFWLHANNKEHSVELHKCEKPLPDQAFFVLHNMHSNCVSFECKTDPGVFIGVKDNHLALIKVDSSENLCTENILFKLSET
- IC50 [4]: 2.25 ± 0.98 nM
- IC50 of one of two independent measurements [4]: 2.94 nM and 1.5 nM
- IC50 [5]: 3.7 ± 0.29 nM
- IC50 of one of two independent measurements [5]: 3.49 nM and 3.9 nM
